# Positions of bridges follow the written chain, without caps; N, C: chain ends. Non-standard residues stand in square brackets, D forms with d. Residues, ends and D or L forms follow the SMILES beside them. *: point of attachment. hPhe(3-Cl-4-CF3) = N[C@@H](CCc1ccc(C(F)(F)F)c(Cl)c1)C(=O)O; hPhe(3-F,4-CF3) = N[C@@H](CCc1ccc(C(F)(F)F)c(F)c1)C(=O)O; NMePhe(4-CF3) = CN[C@@H](Cc1ccc(C(F)(F)F)cc1)C(=O)O; NMePhe(3-CN) = CN[C@@H](Cc1cccc(C#N)c1)C(=O)O; NMePhe(4-Cl) = CN[C@@H](Cc1ccc(Cl)cc1)C(=O)O; NMePhe(4-Me) = CN[C@@H](Cc1ccc(C)cc1)C(=O)O; NMeAla(cPent) = CN[C@@H](CC1CCCC1)C(=O)O; Phe(3-Cl) = N[C@@H](Cc1cccc(Cl)c1)C(=O)O; NMeGly(cPent) = CN[C@H](C(=O)O)C1CCCC1; NMeCha = CN[C@@H](CC1CCCCC1)C(=O)O; NMeF = CN[C@@H](Cc1ccccc1)C(=O)O; NMeI = CC[C@H](C)[C@H](NC)C(=O)O; NMeD = CN[C@@H](CC(=O)O)C(=O)O; NMeL = CN[C@@H](CC(C)C)C(=O)O; NMeV = CN[C@H](C(=O)O)C(C)C; d(β3hA) = C[C@@H](N)CC(=O)O; NMeA = CN[C@@H](C)C(=O)O; NMeAib = CNC(C)(C)C(=O)O; Nle = CCCC[C@H](N)C(=O)O; Piperidide = C1CCN(*)CC1; Pyrrolidide = C1CCN(*)C1; Ac5c = NC1(C(=O)O)CCCC1; Aze = O=C(O)[C@@H]1CCN1; X1 = FC1(F)CN(*)CC1(F)F; NBuGly = CCCCNCC(=O)O; Sar = CNCC(=O)O
# Biological target: T1, Kras and SOS1 (biotin-tagged human Kras loaded with GDP, His-tagged human SOS1) (Homo sapiens, UniProt P01116, G12D)
# T1 construct: made in house; host or cells: E. coli (stated for Kras only)
# Assay: Protein-protein interaction inhibition between Kras and SOS1 (KrasGl2D-SOS PPI) using AlphaScreen
# Format: binding
# Details: AlphaScreen; biotin-tagged human Kras loaded with GDP, His-tagged human SOS1; read-out: KRAS G12D-SOS PPI IC50
# Method in brief: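 Energy transfer from nickel-chelate donor beads bound to His-SOS1 to streptavidin acceptor beads bound to biotin-Kras, expressed in E. coli and loaded with GDP after purification, was monitored. Donors were excited at 680 nm; singlet oxygen reaching acceptors gave emission read at 520-620 nm.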
# T1 sequence (P01116 1-188 isoform P01116-2 G12D): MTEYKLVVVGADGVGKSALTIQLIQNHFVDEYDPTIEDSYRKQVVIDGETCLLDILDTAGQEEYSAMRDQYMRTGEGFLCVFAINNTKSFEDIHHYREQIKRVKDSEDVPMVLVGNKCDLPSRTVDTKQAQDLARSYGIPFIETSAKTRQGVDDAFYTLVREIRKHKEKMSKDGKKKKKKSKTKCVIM
row,SMILES,IC50
1,CC[C@H](C)[C@@H]1NC(=O)[C@H](C)N(C)C(=O)C[C@@H](C)NC(=O)[C@H](C(C)C)N(C)C(=O)[C@H](Cc2ccccc2)N(C)C(=O)[C@H](CC(C)C)N(C)C(=O)[C@H](CCc2ccc(C(F)(F)F)c(Cl)c2)NC(=O)CN(C)C(=O)[C@H](Cc2ccc(Cl)cc2)N(C)C(=O)[C@@H]2CCN2C(=O)CN(C)C1=O [Compound 994] (cyclo([Aze][NMePhe(4-Cl)][Sar][hPhe(3-Cl-4-CF3)][NMeL][NMeF][NMeV][d(β3hA)][NMeA]I[Sar])),0.011 µM
2,CCCCN1CC(=O)N(C)CC(=O)N(C)[C@@H](CC2CCCCC2)C(=O)N(C)CC(=O)N[C@@H](CCc2ccc(C(F)(F)F)c(Cl)c2)C(=O)N2CCC[C@H]2C(=O)NC2(CCCC2)C(=O)N(C)[C@@H](C(C)C)C(=O)N[C@H](C)CC(=O)N(C)[C@@H](CC(C)C)C(=O)N[C@@H]([C@@H](C)CC)C1=O [Compound 123] (cyclo([Ac5c][NMeV][d(β3hA)][NMeL]I[NBuGly][Sar][NMeCha][Sar][hPhe(3-Cl-4-CF3)]P)),0.17 µM
3,"CC[C@H](C)[C@@H]1NC(=O)[C@H](CC(C)C)N(C)C(=O)C[C@@H](C(=O)N2CCCCC2)NC(=O)[C@H](CC(C)C)N(C)C(=O)C2(CCCC2)NC(=O)[C@@H]2CCCN2C(=O)[C@H](CCc2ccc(C(F)(F)F)c(F)c2)NC(=O)CN(C)C(=O)[C@H](CC2CCCCC2)N(C)C(=O)CN(C)C(=O)CN(C)C1=O [Compound 298] ([NMeL]I[Sar][Sar][NMeCha][Sar][hPhe(3-F,4-CF3)]P[Ac5c][NMeL]D-Piperidide; lactam N-11)",0.021 µM
4,CC[C@H](C)[C@@H]1NC(=O)[C@H](C)N(C)C(=O)C[C@@H](C)NC(=O)[C@H](C(C)C)N(C)C(=O)C2(CCCC2)NC(=O)[C@@H]2CCCN2C(=O)[C@H](CCc2ccc(C(F)(F)F)c(Cl)c2)NC(=O)[C@H]2CCCN2C(=O)[C@H](CC2CCCCC2)N(C)C(=O)[C@@H]2CCN2C(=O)CN(C)C1=O [Compound 77] (cyclo([Ac5c][NMeV][d(β3hA)][NMeA]I[Sar][Aze][NMeCha][dP][hPhe(3-Cl-4-CF3)]P)),0.1 µM
5,CC[C@H](C)[C@@H]1NC(=O)[C@H](C)N(C)C(=O)C[C@@H](C(=O)N(C)C)N(C)C(=O)[C@H]([C@@H](C)CC)N(C)C(=O)C2(CCCC2)NC(=O)[C@H](Cc2cccc(C#N)c2)N(C)C(=O)[C@H](CCc2ccc(C(F)(F)F)c(Cl)c2)NC(=O)CN(C)C(=O)[C@H](Cc2ccc(C)cc2)N(C)C(=O)[C@@H]2CCN2C(=O)[C@H](C)N(C)C1=O [Compound 1981] ([NMeA]I[NMeA][Aze][NMePhe(4-Me)][Sar][hPhe(3-Cl-4-CF3)][NMePhe(3-CN)][Ac5c][NMeI][NMeD]-NMe2; lactam N-11),0.0051 µM
6,CC[C@H](C)[C@@H]1NC(=O)[C@H](C)N(C)C(=O)C[C@@H](C)NC(=O)[C@H](C2CCCC2)N(C)C(=O)C2(CCCC2)NC(=O)[C@@H]2CCCN2C(=O)[C@H](CCc2ccc(C(F)(F)F)c(Cl)c2)NC(=O)CN(C)C(=O)[C@H](CC(C)C)N(C)C(=O)[C@@H]2CCCN2C(=O)CN(C)C1=O [Compound 429] (cyclo([Ac5c][NMeGly(cPent)][d(β3hA)][NMeA]I[Sar]P[NMeL][Sar][hPhe(3-Cl-4-CF3)]P)),0.099 µM
7,CC[C@H](C)[C@@H]1NC(=O)[C@H](CC2CCCC2)N(C)C(=O)C[C@@H](C(=O)N2CCCC2)N(C)C(=O)[C@H]([C@@H](C)CC)N(C)C(=O)C2(CCCC2)NC(=O)[C@@H]2CCCN2C(=O)[C@H](CCc2ccc(C(F)(F)F)c(Cl)c2)NC(=O)CN(C)C(=O)[C@H](Cc2ccc(C(F)(F)F)cc2)N(C)C(=O)[C@@H]2CCN2C(=O)[C@H](C)N(C)C1=O [Compound 1183] ([NMeAla(cPent)]I[NMeA][Aze][NMePhe(4-CF3)][Sar][hPhe(3-Cl-4-CF3)]P[Ac5c][NMeI][NMeD]-Pyrrolidide; lactam N-11),0.00073 µM
8,CCCC[C@@H]1NC(=O)[C@H](Cc2cccc(Cl)c2)NC(=O)CN(C)C(=O)[C@H](Cc2ccc(Cl)cc2)N(C)C(=O)CN(C)C(=O)CN(C)C(=O)[C@H]([C@@H](C)CC)NC(=O)[C@H](CC(C)C)N(C)C(=O)C[C@@H](C(=O)N2CCCC2)N(C)C(=O)[C@H](CC(C)C)NC(=O)C(C)(C)N(C)C1=O [Compound 1407] ([NMeL]I[Sar][Sar][NMePhe(4-Cl)][Sar][Phe(3-Cl)][Nle][NMeAib]L[NMeD]-Pyrrolidide; lactam N-11),0.17 µM
9,CC[C@H](C)[C@@H]1NC(=O)[C@H](CC(C)C)N(C)C(=O)C[C@@H](C(=O)N2CC(F)(F)C(F)(F)C2)N(C)C(=O)[C@H](C(C)C)N(C)C(=O)C2(CCCC2)NC(=O)[C@@H]2CCCN2C(=O)[C@H](CCc2ccc(C(F)(F)F)c(Cl)c2)NC(=O)CN(C)C(=O)[C@H](CC2CCCCC2)N(C)C(=O)[C@@H]2CCN2C(=O)[C@H](C)N(C)C1=O [Compound 1136] ([NMeL]I[NMeA][Aze][NMeCha][Sar][hPhe(3-Cl-4-CF3)]P[Ac5c][NMeV][NMeD]-X1; lactam N-11),0.07 µM

# Source: patent US12371454B2, “Cyclic peptide compound having Kras inhibitory action” (priority 2019, dated 2025)
